Experimental data reported in PubChem BioAssay AID2423 (Broad Institute, 2010).
Records with an inconclusive call do not appear. The source made the active and inactive calls. How the calls were made is not given here.

Tested on: C. albicans CaCi-8 + fluconazole, Alamar Blue growth, 48 h
Experiment: resistant C. albicans growth inhibition with fluconazole, dose response, CaCi-8 strain, Alamar Blue fluorescence (AID 2423)

Structure (SMILES) | EC50
Cc1ccc([N+](=O)[O-])cc1-c1[nH]c(-c2ccc(O)c(O)c2)nc1-c1ccccc1 | > 15000 nM (inactive)
Oc1c(Br)cc(Br)cc1/C=N/Nc1ccc(Cl)nn1 | 237 nM
O=C(Oc1c(Cl)cc(Cl)c2cccnc12)c1cccc([N+](=O)[O-])c1 | 444 nM
Cc1ccccc1C(=O)O/N=C/c1c(N2CCOCC2)n(C)c2ccccc12 | 593 nM
Cc1ccc2nc(N3C(=O)C(O)=C(C(=O)c4ccco4)C3c3ccc(C)o3)sc2c1 (stereo not drawn) | 131 nM
Cc1ccc(C(=O)NC(=S)NNC(=O)c2ccccc2[N+](=O)[O-])cc1 | > 15000 nM (inactive)
CC1(C)CC(=O)C2=C(C1)c1c(ccc3ccccc13)NC2c1cc([N+](=O)[O-])cc([N+](=O)[O-])c1O (stereo not drawn) | > 15000 nM (inactive)
COc1ccc(C2C(C#N)=C(N)Oc3c2ccc2cccnc32)cc1OC (stereo not drawn) | 952 nM
Brc1ccc(/C=C/C=N/Nc2nc3ccccc3s2)cc1 | > 16000 nM (inactive)
COc1ccc(-c2cc(C3CCN(Cc4cccc(C(F)(F)F)c4)CC3)[nH]n2)cc1 | 8130 nM
CCCC(=O)NC(c1ccc(OC)cc1)c1ccc2cccnc2c1O (stereo not drawn) | 893 nM
O=C(Cc1ccccc1)Nc1nonc1NC(=O)c1ccccc1 | 477 nM
Cc1n[nH]c(=S)n(NC(=O)CC(=O)Nn2c(=S)[nH]nc(C)c2=O)c1=O | < 120 nM
CC(=O)Nc1cccc(NC(=O)C2CCCN2C(=O)Nc2ccc(Cl)cc2)c1 (stereo not drawn) | > 16000 nM (inactive)
Clc1ccccc1-c1nc2ccccc2c2nc3ccccc3n12 | 204 nM
C=CCOC(=O)c1sc(NC(=O)c2ccco2)nc1C | 348 nM
Oc1c(CN2CCN(c3ccc(F)cc3)CC2)cc(Cl)c2cccnc12 | 572 nM
Nc1ncnc(Sc2ncccn2)c1[N+](=O)[O-] | 484 nM
O=C(NNC(=O)c1ccccc1O)c1ccc(-c2ccc([N+](=O)[O-])cc2)o1 | > 15000 nM (inactive)
Brc1cccc(CSc2nnc(-c3ccncc3)o2)c1 | > 15000 nM (inactive)
CC(Nc1ncnc2ccccc12)c1ccccc1 (stereo not drawn) | 606 nM
CCNC(=S)NNC(=O)c1cc(-c2cc(C)ccc2C)nc2ccccc12 | 134 nM
CSc1nc(Cl)c(C#N)c(-c2ccc(C)cc2)n1 | 2840 nM
CCOC(=O)CC(/C(C)=N\O)c1ccccc1 (stereo not drawn) | > 16000 nM (inactive)
CCc1cc(=S)n2c([nH]c3ccccc32)c1C#N | 513 nM
C/C(=N\NC(=O)CSCc1ccccc1Cl)c1cc(O)ccc1O | > 16000 nM (inactive)

Structure (SMILES) | EC50
Cc1[nH]nc(-c2ccc(O)c(C)c2O)c1-c1cnn(-c2ccccc2)c1 | 3960 nM
Cc1ccc(-c2nc3ccc(Cl)cc3c(=O)n2O)cc1 | 2160 nM
Cc1cc(OC(=O)c2ccco2)c2c3c(c(=O)oc2c1)CCCC3 | 953 nM
Cc1ccc2ccc3ccc(C)nc3c2n1 | 999 nM
Nc1nnnn1/N=C/c1cccc(Oc2ccccc2)c1 | 3450 nM
Fc1cccc2sc(Nc3nnc(-c4ccco4)o3)nc12 | > 15000 nM (inactive)
COc1ccc(-c2csc(-c3ccccc3)n2)c(OC)c1 | 3810 nM
Cc1c(Cl)ccc2c1NC(=O)[C@]21N[C@@H](Cc2ccccc2)[C@H]2C(=O)N(c3ccc(F)cc3)C(=O)[C@H]21 | < 120 nM
O=C(Oc1c(Cl)cc(Cl)c2cccnc12)c1ccco1 | 465 nM
O=C(COc1ccc([N+](=O)[O-])cc1)NNC(=S)NC(=O)c1ccc(Br)cc1 | 2540 nM
CCc1nnc(NC(=O)CSc2ncc(-c3ccccc3)n2C)s1 | 1640 nM
O=C(O)CCCCCN1C(=O)/C(=C\c2ccncc2)SC1=S | 898 nM
O=C(NCc1ccc(F)cc1)C(c1ccccc1)N(CC1CCCO1)C(=O)Cn1nnc2ccccc21 (stereo not drawn) | 1160 nM
CCn1c(NC(=O)c2cccs2)nc2ccccc21 | 1280 nM
Cc1ccc(C(=O)CC(=O)c2ccc(C(C)(C)C)cc2)cc1 | 6220 nM
NC(=O)c1c(NC(=O)c2ccco2)sc2c1CCC2 | 1060 nM
O=C(Nc1cc(F)cc(F)c1)c1ccc(NCCCN2CCCCCC2)c([N+](=O)[O-])c1 | > 16000 nM (inactive)
COc1ccc(OC)c(/C=C2\SC(=S)N(NS(=O)(=O)c3ccc(C)cc3)C2=O)c1 | 1130 nM
Cc1ccc2[nH]c(=O)c(C3C(C#N)=C(N)Oc4c3ccc3cccnc43)cc2c1 (stereo not drawn) | 971 nM
COc1ccccc1-n1c(C)cc(SC)c(C(C)=O)c1=S | > 15000 nM (inactive)
CCOc1ccc(/C=N/NC(=O)c2[nH]ncc2Br)c(O)c1 | 1850 nM
O=C1C(Nc2ccccc2)=C/C(=N/S(=O)(=O)c2cccs2)c2ccccc21 | 3340 nM
O=C(N/N=C(\c1ccccc1)c1ccccn1)c1cccc([N+](=O)[O-])c1 | 5310 nM
Oc1c(C(Nc2cccc(C(F)(F)F)c2)c2cccnc2)ccc2cccnc12 (stereo not drawn) | 2070 nM
O=C(CCc1ccccc1)NNC(=S)NC(=O)c1ccc(Cl)cc1 | 1990 nM
CCN(CC)c1ccc(/C=N/Nc2nc(C)cc(=O)[nH]2)c(O)c1 | 500 nM

Structure (SMILES) | EC50
O=[N+]([O-])c1ccc(O)c(/C=N/NC(=S)Nc2ccc(Cl)cc2Cl)c1 | 1870 nM
O=C(N/N=C/c1cc([N+](=O)[O-])ccc1O)c1ccc(COc2ccc3c(c2)CCC3)o1 | 915 nM
Cc1ccc2nsnc2c1NC(=O)COc1ccccc1F | > 15000 nM (inactive)
CC1=CC2=C(OC1N(C)C)c1cccc3cccc(c13)C2=O (stereo not drawn) | 9240 nM
CCN1/C(=C\c2ccc3cc(C)ccc3[n+]2CC)Sc2cc(C)c(C)cc21 | < 120 nM
CCc1nnc(NC(=O)CSc2nnc(CNc3cccc(C)c3)n2-c2ccccc2)s1 | > 15000 nM (inactive)
O=C(NNC(=O)c1cc(-c2ccncc2)nc2ccccc12)c1ccccc1O | 2290 nM
CC(=O)N(O)CCCCCNC(=O)CCC(=O)N(O)CCCCCNC(=O)CCC(=O)N(O)CCCCCN | 727 nM
N=C1/C(=C\c2ccc(SCc3ccccc3)o2)C(=O)N=C2SC=NN12 | > 15000 nM (inactive)
Oc1c(C(c2ccc(Cl)cc2)N2CCCC2)cc(Cl)c2cccnc12 (stereo not drawn) | 686 nM
CCCc1cc(=O)[nH]c(SCC(=O)Nc2ccc(Br)cc2Br)n1 | 2590 nM
CC1CCN(Cc2c(C(=O)N/N=C/c3cc(Br)ccc3O)nnn2-c2nonc2N)CC1 | 908 nM
CCOC(=O)c1ccc(NC(=O)c2ccc(CO)c(C(=O)NC3CCN(C(=O)OCC)CC3)c2)cc1 | > 16000 nM (inactive)
CCN(CC)c1ccc(N=Cc2ccc(N(CC)CC)cc2O)cc1 | 11100 nM
CCN(CC)C(=O)Cn1c(=O)n(-c2ccccc2)c(=O)c2c3c(sc21)CCC3 | > 16000 nM (inactive)
CCN1/C(=C/C(C)=C/c2sc3ccccc3[n+]2CC)Sc2ccccc21 | < 120 nM
O=C(NCc1ccccc1)C1c2ccccc2Oc2ccccc21 | 6030 nM
Cc1ccc(Sc2ncccc2C(=O)NCc2cc([N+](=O)[O-])ccc2O)c(C)c1 | > 15000 nM (inactive)
Clc1ccc(CONc2ncnc3nonc23)c(Cl)c1 | 328 nM
CCOC(=O)C1CCCN(c2cc(C)nc3cc(-c4ccc(F)cc4)nn23)C1 (stereo not drawn) | > 16000 nM (inactive)
Cc1cccc(C2CC3(CC(C)(C)NC(=S)N3)Oc3cc(O)ccc32)c1 (stereo not drawn) | 3970 nM
CCOC(=O)c1cc2c(=O)n3ccccc3nc2n(CCOC)c1=NC(=O)c1ccncc1 | > 15000 nM (inactive)
CCCc1ccc(Oc2cn[nH]c2-c2ccc(O)cc2O)cc1 | 8050 nM
CCOc1ccc(CN(C(=O)c2oc3ccccc3c2C)C2CCS(=O)(=O)C2)cc1 (stereo not drawn) | > 16000 nM (inactive)
Cc1c(OCC(=O)NCC(O)c2ccccc2)ccc2c(-c3ccccc3)cc(=O)oc12 (stereo not drawn) | 1260 nM
NNC(=S)Nc1cccc(Cl)c1 | 8450 nM
